Five compounds from paper PMC8950706, “Influence of Substitutions in the Binding Motif of Proline-Rich Antimicrobial Peptide ARV-1502 on 70S Ribosome Binding and Antimicrobial Activity” (International Journal of Molecular Sciences, 2022) can be followed below.

≈ marks a conversion by molar mass, not a printed value. Marks after values point to notes of the source that are not given here. Square brackets hold non-standard residues; d marks the D form. Ends that are not written are not given here. Peptide text beside a SMILES is read from it. Ac6c = NC1(C(=O)O)CCCCC1

The subject of test [1] is E. coli 70S ribosome. Kind of test: Competitive FP binding screening assay with Cf-ARV-1502 (relative FP). The arrangement: species or system E. coli BW25113. As to conditions: for Inhibition of Cf-ARV-1502 binding to the 70S ribosome (in words): Figure 3: peptide concentration 1.2 µmol/L; for Ribosome Binding (%): competitive ribosome binding against Cf-ARV-1502 (relative FP; values match 1.2 µmol/L peptide), low value = strong competition. The method, then:
E. coli 70S ribosomes were prepared using a previously described protocol that was slightly modified. Briefly, E. coli BW25113 was cultivated in Luria-Bertani (LB) medium and cells were harvested after reaching an optical density of ~4 at 600 nm by centrifugation (5000× g, 15 min, 4 °C, Rotor JLA 8.100, Avanti J-20 XP, Beckmann Coulter, Krefeld, Germany). The cell pellets were frozen and stored at −80 °C. Cells were resuspended in ribosome buffer (2 mL/g cells; 20 mmol/L HEPES-KOH, 6 mmol/L MgCl2, 30 mmol/L NH4Cl, 4 mmol/L 2-mercaptoethanol, pH 7.6). Lysozyme (0.25 g/L cell suspension) was added, and the mixture was incubated on ice for 30 min. Cells were disrupted using the bead mill homogenizer FastPrep-24™ 5G (40 s, 4 m/s, 6 cycles, MP Biomedicals Germany GmbH, Eschwege, Germany) and zirconia/silica beads (0.1 mm diameter). The lysate was centrifuged (1500× g, 5 min, 4 °C, Rotor S4180, Allegra 21R, Beckmann Coulter) and the supernatant was incubated with DNase (5 U/mL) on ice for 60 min. The cell debris was removed by two centrifugation steps (16,000× g, 30 min, 4 °C followed by 32,000× g, 60 min, 4 °C, Rotor JA 30.50 Ti, Avanti J-30I, Beckmann Coulter). The ribosome was pelleted by ultracentrifugation (165,000× g, 17 h, 4 °C, Rotor 70 Ti, Optima LE-80K, Beckmann Coulter), resuspended in ribosome buffer (0.1 mL/g pellet), and stored at −80 °C. The ribosome concentration was determined by recording the absorbance of RNA at 260 nm (NanoPhotometer NP80, Implen GmbH, München, Germany) assuming that 1 AU corresponds to a ribosome concentration of 28 nmol/L. The molecular weight of the E. coli 70S ribosome was assumed to be 2.3 MDa.
E. coli 70S ribosomes and Cf-ARV-1502 were incubated with four different concentrations of unlabeled peptides chosen based on the IC50 curves of reference peptide ARV-1502. Each peptide was diluted in ribosome buffer to obtain a concentration of 4.8 µmol/L and transferred to a 384-well-plate. Peptides were then twofold serially diluted in four steps from 4.8 to 0.6 µmol/L (20 µL). The ribosome extract was diluted in ribosome buffer to reach a concentration of 2 µmol/L and 10 µL were added to each well to obtain a final ribosome concentration of 0.5 µmol/L. Plates were centrifuged (2 min, 500× g, Rotor S2096, Allegra^TM 21R, Beckmann Coulter) and incubated at 28 °C for 90 min. Cf-labeled ARV-1502 was added (10 µL; final concentration of 20 nmol/L) and the plates were again centrifuged and incubated (28 °C, 90 min). After incubation, fluorescence polarization was recorded on a […]^TM microplate reader (λex = 485 nm, λem = 535 nm).
On each plate 12 minimum (30 µL ribosome buffer and 10 µL Cf-ARV-1502) and 12 maximum (20 µL ribosome buffer, 10 µL ribosome solution and 10 µL Cf-ARV-1502) control samples were added. Fluorescence polarization of screening samples was normalized to the fluorescence polarization of these control samples. All screening samples were measured in triplicates and the whole experiment was repeated once on another day.

Test [2] deals with E. coli BW25113. Kind of test: MIC, liquid broth micro dilution, wild type. In kind it is cell-based, Escherichia coli. The following applies: for Minimal Inhibitory Concentration, 25% MHB2, wt / Minimal Inhibitory Concentration, 33% TSB, wt: BW25113, 20 h. The method, then: MIC values were determined using a liquid broth micro dilution assay in sterile 96-well plates (polystyrene F-bottom, Greiner Bio-One GmbH) and a total volume of 100 μL per well. Aqueous peptide solutions (10 g/L) were serially twofold diluted in 25% Mueller-Hinton broth 2 (25% MBH2) or 33% tryptic soy broth (33% TSB) starting at a peptide concentration of 128 mg/L (50 μL/well). Overnight cultures of bacteria grown in 25% MHB2 (or 33% TSB) were diluted 30-fold in 25% MHB2 (or 33% TSB). After an incubation period of 4 h (37 °C, 200 rpm), cells were diluted to 1.5 × 10^7 cfu/mL, based on a McFarland test, and 50 μL were added to each well (final concentration of 7.5 × 10^6 […]). The plates were incubated (37 °C, 20 h) and the optical density was recorded at 595 nm using a microplate reader ([…]^TM, Beckmann Coulter). The MIC was defined as the lowest peptide concentration preventing visible bacterial growth.

The test system of test [3] is E. coli 70S ribosome. Kind of test: Cell-free GFP expression assay (in vitro translation). As to conditions: for In Vitro Translation (%): GFP expression remaining relative to control, concentration not given (higher concentration 50 µmol/L); for Reduction of GFP expression, 50 µmol/L peptide: cell-free expression, peptide-to-ribosome ratio of 25, GFP fluorescence, 37 °C. In kind it is biochemical. An excerpt:
Possible effects of ARV-1502 and its substituted analogs on the in vitro translation of the green fluorescent protein (GFP) were probed using the NEB PureExpress Delta RF123 Kit (New England Biolabs, Ipswich, MA, USA). The sfGFP DNA template was amplified from pY71sfGFP plasmid by PCR introducing an UAA stop codon. Release factor 1 (RF1) was 50fold diluted in Pure System Buffer (PSB) containing magnesium acetate (1 mol/L), monopotassium phosphate (0.5 mol/L, pH 7.3), potassium glutamate (1 mol/L), NH4Cl (1 mol/L), calcium chloride (0.5 mol/L), spermidine (1 mol/L), putrescine (0.1 mol/L), and DTT (0.1 mol/L). Each reaction used 35 ng of sfGFP template. Peptides were added at a final concentration of 5 µmol/L and 50 µmol/L. The reaction was started by adding Kit solutions A (2 µL) and B (1.5 µL), diluted RF1 (0.5 µL), sfGFP template (0.25 µL or water as negative control), PSB (0.25 µL), and peptide (0.5 µL or water), mixed, transferred into a black 384-well plate (flat bottom, Greiner Bio-One GmbH), and incubated (37 °C, 2 h). The fluorescence was recorded every 10 min (λexc = 485 nm, λem = 535 nm) in a microplate reader (Gemini EM, Molecular Devices LLC, San Jose, CA, USA).

As for “6: Chex-RPDDPRPYLPRPRPPRPVR-NH2 ([Ac6c]RPDDPRPYLPRPRPPRPVR-NH2; N-terminus assumed; SMILES CC(C)C[C@H](NC(=O)[C@H](Cc1ccc(O)cc1)NC(=O)[C@@H]1CCCN1C(=O)[C@H](CCCNC(=N)N)NC(=O)[C@@H]1CCCN1C(=O)[C@H](CC(=O)O)NC(=O)[C@H](CC(=O)O)NC(=O)[C@@H]1CCCN1C(=O)[C@H](CCCNC(=N)N)NC(=O)C1(N)CCCCC1)C(=O)N1CCC[C@H]1C(=O)N[C@@H](CCCNC(=N)N)C(=O)N1CCC[C@H]1C(=O)N[C@@H](CCCNC(=N)N)C(=O)N1CCC[C@H]1C(=O)N1CCC[C@H]1C(=O)N[C@@H](CCCNC(=N)N)C(=O)N1CCC[C@H]1C(=O)N[C@H](C(=O)N[C@@H](CCCNC(=N)N)C(N)=O)C(C)C) [Peptide 6]”, the “Inhibition of Cf-ARV-1502 binding to the 70S ribosome (in words)” value in test [1] was “inhibited Cf-ARV-1502”. Moreover, the “MIC / activity against E. coli” value in test [2] (medium not given) is given as “low activity against E. coli”.

On to `CC(C)[C@H](NC(=O)[C@@H]1CCCN1C(=O)[C@H](CCCNC(=N)N)NC(=O)[C@@H]1CCCN1C(=O)[C@@H]1CCCN1C(=O)[C@H](CCCNC(=N)N)NC(=O)[C@@H]1CCCN1C(=O)[C@H](CCCNC(=N)N)NC(=O)[C@@H]1CCCN1C(=O)[C@H](CCCCN)NC(=O)[C@H](Cc1ccc(O)cc1)NC(=O)[C@@H]1CCCN1C(=O)[C@H](CCCNC(=N)N)NC(=O)[C@@H]1CCCN1C(=O)[C@H](CCCCN)NC(=O)[C@H](CCCCN)NC(=O)[C@@H]1CCCN1C(=O)[C@H](CCCNC(=N)N)NC(=O)C1(N)CCCCC1)C(=O)N[C@@H](CCCNC(=N)N)C(N)=O` [Peptide 37] (H-[Ac6c]RPKKPRPYKPRPRPPRPVR-NH2; N-terminus and C-terminus assumed), for which the “Ribosome Binding (%)” value in test [1] was determined as 56.7 ± 2.6%. Moreover, the “MIC (µg/mL), Table 3” value in test [2] (BW25113, 4 h) came out at 16 µg/mL (≈ 6.39 µM). Besides, in test [2], the “Minimal Inhibitory Concentration, 25% MHB2, wt” value was 16 µg/mL and the “Minimal Inhibitory Concentration, 33% TSB, wt” value was 64 µg/mL. In test [3], the “In Vitro Translation (%)” value is reported as 63.4 ± 13.3% and the “Reduction of GFP expression, 50 µmol/L peptide” value (“Reduction of GFP expression” for short) is recorded as ~ 40%.

`CC(C)C[C@H](NC(=O)[C@H](Cc1ccc(O)cc1)NC(=O)[C@@H]1CCCN1C(=O)[C@H](CCCNC(=N)N)NC(=O)[C@@H]1CCCN1C(=O)[C@H](CCCCN)NC(=O)[C@H](CCCCN)NC(=O)[C@@H]1CCCN1C(=O)[C@H](CCCNC(=N)N)NC(=O)C1(N)CCCCC1)C(=O)N1CCC[C@H]1C(=O)N[C@@H](Cc1ccccc1)C(=O)N1CCC[C@H]1C(=O)N[C@@H](CCCNC(=N)N)C(=O)N1CCC[C@H]1C(=O)N1CCC[C@H]1C(=O)N[C@@H](CCCNC(=N)N)C(=O)N1CCC[C@H]1C(=O)N[C@H](C(=O)N[C@@H](CCCNC(=N)N)C(N)=O)C(C)C` [Peptide 46] (H-[Ac6c]RPKKPRPYLPFPRPPRPVR-NH2; N-terminus and C-terminus assumed): the “Ribosome Binding (%)” value in test [1] was 87.1 ± 3.4%. The “MIC / activity against E. coli” value in test [2] (BW25113, 4 h) is 16 mg/L (≈ 6.45 µM). For the same compound, in test [2], the “Minimal Inhibitory Concentration, 25% MHB2, wt” value is reported as 16 µg/mL and the “Minimal Inhibitory Concentration, 33% TSB, wt” value is given as 64 * µg/mL. Also, in test [3], the “In Vitro Translation (%)” value was 96.6 ± 3.1% and the “Reduction of GFP expression” value is on record as “did not inhibit GFP expression”.

With `CC(C)C[C@H](NC(=O)[C@H](Cc1ccc(O)cc1)NC(=O)[C@@H]1CCCN1C(=O)[C@H](CCCNC(=N)N)NC(=O)[C@@H]1CCCN1C(=O)[C@H](Cc1ccccc1)NC(=O)[C@H](Cc1ccccc1)NC(=O)[C@@H]1CCCN1C(=O)[C@H](CCCNC(=N)N)NC(=O)C1(N)CCCCC1)C(=O)N[C@@H](CCCCN)C(=O)N[C@@H](CCCNC(=N)N)C(=O)N1CCC[C@H]1C(=O)N[C@@H](CCCNC(=N)N)C(=O)N1CCC[C@H]1C(=O)N1CCC[C@H]1C(=O)N[C@@H](CCCNC(=N)N)C(=O)N1CCC[C@H]1C(=O)N[C@H](C(=O)N[C@@H](CCCNC(=N)N)C(N)=O)C(C)C` [Peptide 98] (H-[Ac6c]RPFFPRPYLKRPRPPRPVR-NH2; N-terminus and C-terminus assumed), in test [1], the “Inhibition of Cf-ARV-1502 binding to the 70S ribosome (in words)” value was “poor competitor of Cf-ARV-1502” and the “Ribosome Binding (%)” value is reported as 98.3 ± 1.5%. In test [2] (BW25113, 4 h), the “MIC (µg/mL), Table 3” value is 8 to 16 µg/mL. In test [2], the “Minimal Inhibitory Concentration, 25% MHB2, wt” value lay within 8 to 16 µg/mL and the “Minimal Inhibitory Concentration, 33% TSB, wt” value was 32 µg/mL. The “In Vitro Translation (%)” value in test [3] is listed as 56.2 ± 2.1%.

Consider `CC(C)[C@H](NC(=O)[C@@H]1CCCN1C(=O)[C@H](CCCNC(=N)N)NC(=O)[C@@H]1CCCN1C(=O)[C@@H]1CCCN1C(=O)[C@H](CCCNC(=N)N)NC(=O)[C@@H]1CCCN1C(=O)[C@H](CCCNC(=N)N)NC(=O)[C@@H]1CCCN1C(=O)[C@H](CCCCN)NC(=O)[C@H](CO)NC(=O)[C@@H]1CCCN1C(=O)[C@H](CCCNC(=N)N)NC(=O)[C@@H]1CCCN1C(=O)[C@H](CCCCN)NC(=O)[C@H](CC(=O)O)NC(=O)[C@@H]1CCCN1C(=O)[C@H](CCCNC(=N)N)NC(=O)C1(N)CCCCC1)C(=O)N[C@@H](CCCNC(=N)N)C(N)=O` [Peptide 125] (H-[Ac6c]RPDKPRPSKPRPRPPRPVR-NH2; N-terminus and C-terminus assumed), for which, in test [1], the “Ribosome Binding (%)” value was found to be 86.3 ± 2.5%. The “MIC (µg/mL), Table 3” value in test [2] (BW25113, 4 h) is given as 128 µg/mL (≈ 53 µM). Besides, in test [2], the “Minimal Inhibitory Concentration, 25% MHB2, wt” value is recorded as 128 µg/mL. Moreover, in test [3], the “In Vitro Translation (%)” value was 104.3 ± 9.3% and the “Reduction of GFP expression” value is listed as “slightly improved GFP translation”.
